Activity calls are given as the source filed them. No cut-off for these calls is given here.
Columns and labels:
PC-3M [1] = assay: Induction of apoptosis in human PC3M cells assessed as early apoptotic cells at 20 uM after 48 hrs by annexin V-FITC/propidium iodide staining based flow cytometry (reference value: 31.94%); format: functional
[2] = Cell cycle arrest in human PC3M cells assessed as accumulation at G1 phase at 20 uM after 24 hrs by propidium iodide staining based flow cytometry (reference value: 56.82%); format: functional; settings: PC-3M
PC-3M [3] = assay: Induction of apoptosis in human PC3M cells assessed as late apoptotic cells at 20 uM after 48 hrs by annexin V-FITC/propidium iodide staining based flow cytometry (reference value: 0.32%); format: functional
[4] = Selectivity index, ratio of IC50 for HAF cells to IC50 for human PC3M cells; format: functional
PC-3M [5] = assay: Induction of apoptosis in human PC3M cells assessed as late apoptotic cells at 2.5 uM after 48 hrs by annexin V-FITC/propidium iodide staining based flow cytometry (reference value: 0.32%); format: functional
PC-3M [6] = assay: Induction of apoptosis in human PC3M cells assessed as early apoptotic cells at 2.5 uM after 24 hrs by annexin V-FITC/propidium iodide staining based flow cytometry (reference value: 15.20%); format: functional
PC-3M [7] = assay: Induction of apoptosis in human PC3M cells assessed as early apoptotic cells at 20 uM after 24 hrs by annexin V-FITC/propidium iodide staining based flow cytometry (reference value: 15.20%); format: functional
PC-3M [8] = assay: Induction of apoptosis in human PC3M cells assessed as late apoptotic cells at 2.5 uM after 24 hrs by annexin V-FITC/propidium iodide staining based flow cytometry (reference value: 0.97%); format: functional
[9] = Inhibition of colony formation in human PC3M cells at 5 uM after 7 days by crystal violet staining based assay; format: functional; settings: PC-3M, 168 h
PC-3M [10] = assay: Induction of apoptosis in human PC3M cells assessed as late apoptotic cells at 20 uM after 24 hrs by annexin V-FITC/propidium iodide staining based flow cytometry (reference value: 0.97%); format: functional
[11] = Antimigratory activity against human PC3M cells at 2.5 uM after 12 hrs by crystal violet staining based transwell migration assay relative to control; format: functional, PC-3M
[12] = Cell cycle arrest in human PC3M cells assessed as accumulation at G1 phase at 10 uM after 24 hrs by propidium iodide staining based flow cytometry (reference value: 56.82%); format: functional; settings: PC-3M
[13] = Cell cycle arrest in human PC3M cells assessed as accumulation at G1 phase at 2.5 uM after 24 hrs by propidium iodide staining based flow cytometry (reference value: 56.82%); format: functional; settings: PC-3M
PC-3M [14] = assay: Induction of apoptosis in human PC3M cells assessed as late apoptotic cells at 10 uM after 24 hrs by annexin V-FITC/propidium iodide staining based flow cytometry (reference value: 0.97%); format: functional
PC-3M [15] = assay: Inhibition of colony formation in human PC3M cells after 7 days by crystal violet staining based assay; format: functional, cell-based
PC-3M [16] = assay: Induction of apoptosis in human PC3M cells assessed as early apoptotic cells at 2.5 uM after 48 hrs by annexin V-FITC/propidium iodide staining based flow cytometry (reference value: 31.94%); format: functional
[17] = Antiproliferative activity against human ES2 cells after 48 hrs by SRB assay; format: functional, cell-based; settings: ES-2, 48 h
[18] = Cell cycle arrest in human PC3M cells assessed as accumulation at G1 phase at 5 uM after 24 hrs by propidium iodide staining based flow cytometry (reference value: 56.82%); format: functional; settings: PC-3M
PC-3M [19] = assay: Induction of apoptosis in human PC3M cells assessed as early apoptotic cells at 10 uM after 48 hrs by annexin V-FITC/propidium iodide staining based flow cytometry (reference value: 31.94%); format: functional
[20] = Antiproliferative activity against human PC3M cells after 48 hrs by SRB assay; format: functional, cell-based; settings: PC-3M
PC-3M [21] = assay: Induction of apoptosis in human PC3M cells assessed as early apoptotic cells at 10 uM after 24 hrs by annexin V-FITC/propidium iodide staining based flow cytometry (reference value: 15.20%); format: functional
PC-3M [22] = assay: Induction of apoptosis in human PC3M cells assessed as early apoptotic cells at 5 uM after 48 hrs by annexin V-FITC/propidium iodide staining based flow cytometry (reference value: 31.94%); format: functional
[23] = Antimigratory activity against human PC3M cells at 20 uM after 12 hrs by crystal violet staining based transwell migration assay; format: functional, PC-3M
PC-3M [24] = assay: Induction of apoptosis in human PC3M cells assessed as early apoptotic cells at 5 uM after 24 hrs by annexin V-FITC/propidium iodide staining based flow cytometry (reference value: 15.20%); format: functional
[25] = Antiproliferative activity against HAF cells after 48 hrs by SRB assay; format: cell-based; settings: Homo sapiens
PC-3M [26] = assay: Antimigratory activity against human PC3M cells after 12 hrs by crystal violet staining based transwell migration assay; format: functional, cell-based
PC-3M [27] = assay: Induction of apoptosis in human PC3M cells assessed as late apoptotic cells at 10 uM after 48 hrs by annexin V-FITC/propidium iodide staining based flow cytometry (reference value: 0.32%); format: functional
[28] = Selectivity index, ratio of IC50 for HAF cells to IC50 for human ES2 cells; format: functional
PC-3M [29] = assay: Induction of apoptosis in human PC3M cells assessed as late apoptotic cells at 5 uM after 24 hrs by annexin V-FITC/propidium iodide staining based flow cytometry (reference value: 0.97%); format: functional
[30] = Cell cycle arrest in human PC3M cells assessed as accumulation at G1 phase after 24 hrs by propidium iodide staining based flow cytometry; format: functional; settings: PC-3M
[31] = Selectivity index, ratio of IC50 for HAF cells to IC50 for human HT-29 cells; format: functional
PC-3M [32] = assay: Inhibition of colony formation in human PC3M cells at 10 uM after 7 days by crystal violet staining based assay; format: functional, cell-based
PC-3M [33] = assay: Induction of apoptosis in human PC3M cells assessed as late apoptotic cells at 5 uM after 48 hrs by annexin V-FITC/propidium iodide staining based flow cytometry (reference value: 0.32%); format: functional
[34] = Cell cycle arrest in human PC3M cells assessed as reduction in S phase at 2.5 to 20 uM after 24 hrs by propidium iodide staining based flow cytometry; format: functional; settings: PC-3M
[35] = Antiproliferative activity against human HT-29 cells after 48 hrs by SRB assay; format: functional, cell-based; settings: HT-29, 48 h

Structure (SMILES): C=C(C)C1CC[C@H]2[C@@H]3CC[C@H]([C@H](C)CCC(=O)N4CCNCC4)[C@@]3(C)CC[C@@H]2[C@@]1(C)CCC(=O)N1CCNCC1 (stereo not given in full)
- Activity (PC-3M [1]): 22.72%
- Activity [2]: 79%
- Activity (PC-3M [3]): 1.31%
- Ratio IC50 [4]: 26.3
- Activity (PC-3M [5]): 0.44%
- Activity (PC-3M [6]): 15.36%
- Activity (PC-3M [7]): 14.5%
- Activity (PC-3M [8]): 0.61%
- inhibition at 5 µM [9]: 70%
- Activity (PC-3M [10]): 0.9%
- Activity [11]: 50%
- Activity [12]: 69%
- Activity [13]: 58.4%
- Activity (PC-3M [14]): 0.6%
- inhibition (PC-3M [15]): Dose-dependent effect
- Activity (PC-3M [16]): 30.07%
- IC50 [17]: 3.86 µM
- Activity [18]: 66.3%
- Activity (PC-3M [19]): 29.52%
- IC50 [20]: 1.07 µM
- Activity (PC-3M [21]): 14.66%
- Activity (PC-3M [22]): 30.18%
- Activity [23]: 100%
- Activity (PC-3M [24]): 13.78%
- IC50 [25]: 28.1 µM
- Activity (PC-3M [26]): Dose-dependent effect
- Activity (PC-3M [27]): 0.79%
- Ratio IC50 [28]: 7.3
- Activity (PC-3M [29]): 0.87%
- Activity [30]: Dose-dependent effect
- Ratio IC50 [31]: 6.1
- inhibition (PC-3M [32]): Active
- Activity (PC-3M [33]): 0.48%
- Activity [34]: Active
- IC50 [35]: 4.58 µM

— ChEMBL document CHEMBL3867430, “Novel 3,4-seco bile acid diamides as selective anticancer proliferation and migration agents” (Eur J Med Chem, 2016)
